Data set [1] has as its system MCF7. The data set can be described thus: Cytotoxicity against human MCF7 cells assessed as cell viability at 10 uM incubated for 48 hrs by MTT assay. It counts as toxicity, cell-based. The conditions noted are these: mcf7, 48 h. (Formazan colour is commonly taken as a measure of viable cells.)
In data set [2] the test system is MCF7. The data set can be described thus: Potentiation of MCLOP induced antiproliferative activity against human MCF7 cells assessed as cell survial rate in presence of light irradiation at 10 uM and measured after 48 hrs by MTT assay. It counts as functional.
A short description of data set [3]: Octanol-water partition coefficient, logP of the compound. It counts as physicochemical.
Data set [4] in a line: Toxicity in BALB/c nude mouse xenografted with human MCF7 cells assessed as effect on body weight at 5 mg/kg, ip administered once daily for 15 days in presence of light irradiation. It counts as organism-based. The conditions noted are these: in vivo, 360 h, time 15 day.
Data set [5] has as its system MCF7. The data set can be described thus: Induction of ROS generation in human MCF7 cells assessed as increase in ROS level at 5 uM for 10 mins by DCFH-DA staining-based flow cytometry. It counts as functional.
Data set [6] is described as follows: Toxicity in BALB/c nude mouse xenografted with human MCF cells assessed as MCLOP induced morphological changes in lung at 5 mg/kg, ip administered once daily for 15 days by H and E staining based analysis. It counts as organism-based. The conditions noted are these: in vivo, 360 h, time 15 day. (A xenograft is tissue or cells of one species grown in another, often human tumour cells in immunodeficient mice.)

In data set [7] the test system is MCF7. Briefly: Potentiation of MCLOP induced cell membrane permeability in human MCF7 cells at 5 uM in dark by confocal microscopy analysis. It counts as functional.
For data set [8], the system named is MCF7. Briefly: Potentiation of MCLOP induced ROS generation in human MCF7 cells assessed as increase in ROS level at 5 uM for 10 mins by DCFH-DA staining-based flow cytometry. It counts as functional. In general terms: In flow cytometry, cells or beads pass a laser one at a time.
Data set [9] in a line: Toxicity in BALB/c nude mouse xenografted with human MCF cells assessed as MCLOP induced morphological changes in spleen at 5 mg/kg, ip administered once daily for 15 days by H and E staining based analysis. The conditions noted are these: in vivo, 360 h, time 15 day. It counts as organism-based.
The test system of data set [10] is MCF7. Briefly: Potentiation of MCLOP induced increase in HClO level in human MCF7 cells by fluorescence method. It counts as functional.
For data set [11], the system named is MCF7. Briefly: Potentiation of MCLOP induced autophagy in human MCF7 cells assessed as decrease in p62 protein level at 5 uM measured after 24 hrs by western blot analysis. It counts as functional, cell-based.
Data set [12] in a line: Toxicity in BALB/c nude mouse xenografted with human MCF cells assessed as MCLOP induced morphological changes in kidney at 5 mg/kg, ip administered once daily for 15 days by H and E staining based analysis. It counts as organism-based. The conditions noted are these: in vivo, 360 h, time 15 day.
For data set [13], the system named is MCF7. Briefly: Potentiation of MCLOP induced antitumor activity against human MCF7 cells xenografted in Balb/c nude mouse assessed as tumor growth inhibition at 5 mg/kg, ip administered once daily for 15 days in presence of light irradiation. It counts as functional, organism-based. The conditions noted are these: time 15.0 day.
Data set [14] in a line: Toxicity in BALB/c nude mouse xenografted with human MCF cells assessed as MCLOP induced morphological changes in heart at 5 mg/kg, ip administered once daily for 15 days by H and E staining based analysis. It counts as organism-based. The conditions noted are these: in vivo, 360 h, time 15 day.
Data set [15] is described as follows: Toxicity in BALB/c nude mouse xenografted with human MCF cells assessed as MCLOP induced morphological changes in liver at 5 mg/kg, ip administered once daily for 15 days by H and E staining based analysis. It counts as organism-based. The conditions noted are these: in vivo, 360 h, time 15 day.
In data set [16] the test system is MCF7. Briefly: Potentiation of MCLOP induced autophagy in human MCF7 cells assessed as increase in […] protein ratio level at 5 uM and measured after 24 hrs by western blot analysis. It counts as functional, cell-based.
Data set [17] can be described thus: Effect on HClO level in human MCF7 cells by fluorescence method. It counts as functional.
In data set [18] the test system is MCF7. The data set can be described thus: Potentiation of MCLOP induced cell membrane permeability in human MCF7 cells at 5 uM in presence of light irradiation by confocal microscopy analysis. It counts as functional.
In data set [19] the test system is MCF7. Briefly: Potentiation of MCLOP induced autophagy in human MCF7 cells assessed as induction of autophagosomes formation by measuring increase LC3 puncta at 5 uM measured after 24 hrs by confocal microscopic analysis. It counts as functional, cell-based.
In data set [20] the test system is B16-F10. Briefly: Antiproliferative activity against mouse B16-F10 cells assessed as cell viability in light irradiation and measured for 48 hrs by MTT assay. It counts as functional, cell-based. The conditions noted are these: B16-F10, light or radiation study.
Data set [21] has as its system MCF7. Briefly: Antiproliferative activity against human MCF7 cells assessed as cell viability in light irradiation and measured after 48 hrs by MTT assay. It counts as functional, cell-based. The conditions noted are these: MCF7, light or radiation study.
The subject of data set [22] is B16-F10. The data set can be described thus: Antiproliferative activity against mouse B16-F10 cells assessed as cell viability in dark incubated for 48 hrs by MTT assay. It counts as functional, cell-based. The conditions noted are these: B16-F10, 48 h.
In data set [23] the test system is MCF7. The data set can be described thus: Induction of cell membrane permeability in human MCF7 cells at 5 uM in presence of light irradiation by confocal microscopy analysis. It counts as functional.
The subject of data set [24] is MCF7. Briefly: Antiproliferative activity against human MCF7 cells assessed as cell viability in dark incubated for 48 hrs by MTT assay. The conditions noted are these: MCF7, 48 h. It counts as functional, cell-based.

Active and inactive are the calls of the source. No cut-off for these calls is given here.

The values below come from ChEMBL document CHEMBL5154663, “Biotinylated curcumin as a novel chemosensitizer enhances naphthalimide-induced autophagic cell death in breast cancer cells” (Eur J Med Chem, 2022).

Regarding `COc1cc(/C=C/C(=O)CC(=O)/C=C/c2ccc(O)c(OC)c2)ccc1O` [CURCUMIN], the Activity result is on record as “Non-Toxic” in the data set on MCF7 [1] and 20% in the data set on MCF7 [2]. Besides, in data set [3], the logP (usually a log measure of how a compound divides between an organic and an aqueous phase) was 2.04.
`COc1cc(/C=C/C(=O)CC(=O)/C=C/c2ccc(OC(=O)CCCC[C@@H]3SC[C@@H]4NC(=O)N[C@@H]43)c(OC)c2)ccc1O`: the Activity result is “Non-Toxic” in data set [4]; “Dde” in the data set with MCF7 [5] (DDE = dose-dependent effect); “Non-Toxic” in [6]; “Non-Toxic” in data set [9]; “Non-Toxic” in [12]; “Non-Toxic” in data set [14]. Further, the Activity entry in data set [15] was “Non-Toxic”. Moreover, the “fold change (FC)” value in the data set on MCF7 [7] was determined as 3; with MCF7 [8], 5.6; in the data set with MCF7 [10], 2.2; in [17] it was 2.3; in the data set with MCF7 [18] it was 5.3. The result in the data set on MCF7 [11], in the data set with MCF7 [13], with MCF7 [16] and with MCF7 [19] was Active. In data set [3], this molecule gave a logP of 0.91.
With `CN(C)c1ccc2c(c1)Sc1cc(N(C)C)ccc1N2C(=O)NCCN1C(=O)c2cccc3cc([N+](=O)[O-])cc(c23)C1=O`, the IC50 (as a rule, the midpoint of a concentration-inhibition curve) in the data set with B16-F10 [20] is 30.8 µM; in the data set on MCF7 [21] it was 12.7 µM; in the data set with B16-F10 [22], above 40 µM; with MCF7 [24] it was above 40 µM. The Activity entry in data set [4] is “Non-Toxic”. Besides, the figures for the “fold change (FC)” value with MCF7 [5] and in the data set on MCF7 [23] were 3.1 and 4.1, respectively.
Consider `CN(C)c1ccc2nc3ccc(N(C)C)cc3[s+]c2c1` [METHYLENE BLUE ANHYDROUS], for which the IC50 worked out at 5.48 µM in the data set on B16-F10 [20], 10.6 µM in the data set with MCF7 [21], 7.02 µM with B16-F10 [22] and 14.6 µM with MCF7 [24].
